*1 amine or outer side, *2 acyl side, *3 side chain or, on linkers, in order; H or OH if unused. Where a SMILES comes first, the peptide text is derived from it. [ ]: non-standard residue; d: D form. Bip(4'-COOH) = N[C@@H](Cc1ccc(-c2ccc(C(=O)O)cc2)cc1)C(=O)O; 1Nal(3S-Me) = C[C@@H](c1cccc2ccccc12)[C@H](N)C(=O)O; hPhe(4-CF3) = N[C@@H](CCc1ccc(C(F)(F)F)cc1)C(=O)O; X8 = O=C([C@H](CCc1cccc(C(F)(F)F)c1)N[*:1])[*:2]; X13 = O=C([C@H](CCc1ccccc1C(F)(F)F)N[*:1])[*:2]; Ala(pyrimidin-5-yl) = N[C@@H](Cc1cncnc1)C(=O)O; Phe(4-COOH) = N[C@@H](Cc1ccc(C(=O)O)cc1)C(=O)O; Trp(7-aza) = N[C@@H](Cc1c[nH]c2ncccc12)C(=O)O; h3Pal(5-CN) = N#Cc1cncc(CC[C@H](N)C(=O)O)c1; Pro(4R-NH2) = N[C@H]1CN[C@H](C(=O)O)C1; Ala(4-THP) = N[C@@H](CC1CCOCC1)C(=O)O; AEF = NCCOc1ccc(C[C@H](N)C(=O)O)cc1; hTyr = N[C@@H](CCc1ccc(O)cc1)C(=O)O; hPhe = N[C@@H](CCc1ccccc1)C(=O)O; 4Pal = N[C@@H](Cc1ccncc1)C(=O)O; dDab = NCC[C@@H](N)C(=O)O; dNMeA = CN[C@H](C)C(=O)O; Dab = NCC[C@H](N)C(=O)O; Aib = CC(C)(N)C(=O)O

For the test, the target named is T1, Recombinant human IL-1β (Homo sapiens, UniProt P01584).
T1 construct: purchased BioLegend 579404
T1 sequence (P01584 117-269): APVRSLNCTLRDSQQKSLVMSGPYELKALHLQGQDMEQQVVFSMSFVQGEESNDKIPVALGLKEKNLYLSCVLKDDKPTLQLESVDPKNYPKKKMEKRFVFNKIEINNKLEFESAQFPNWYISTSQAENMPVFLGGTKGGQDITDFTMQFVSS
Put plainly: IL-6 assay in MRC5 cells: inhibition of IL-1β induced IL-6 secretion (AlphaLISA). As to conditions: inhibition of IL-1β induced IL-6 secretion in MRC5 cells; IL-1β pre-incubated 1 hour with compound; read-out: MRC5 IC50. In kind it is cell-based. A digest of the protocol:
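IL-1β at 2×EC80 in seeding medium (EMEM, 0.025% BSA) preincubated 1 h at ambient temperature with compound, then 3000 MRC5 cells/well added and incubated overnight at 37 °C, 5% CO2. IL-6 in conditioned medium quantified by AlphaLISA; IC50 from 4-parameter logistic fit.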
On the technique in general: Bead proximity is the source of the signal in Alpha formats.
For `CC(=O)NCCOc1ccc(C[C@@H]2NC(=O)[C@H](CCc3cncc(C#N)c3)NC(=O)[C@@H](CCN)NC(=O)CNC(=O)[C@H](Cc3ccncc3)NC(=O)[C@H](Cc3ccc(-c4ccc(C(=O)O)cc4)cc3)NC(=O)CNC(=O)[C@@H](C)N(C)C(=O)[C@H](CC(=O)O)NC(=O)[C@H]([C@@H](C)c3cccc4ccccc34)NC(=O)[C@@H]3C[C@@H](N)CN3C(=O)CNC(=O)[C@H](Cc3ccc(C(=O)O)cc3)NC(=O)[C@H](Cc3c[nH]c4ccccc34)NC2=O)cc1` [Example 102] (cyclo([AEF](Ac)W[Phe(4-COOH)]G[Pro(4R-NH2)][1Nal(3S-Me)]D[dNMeA]G[Bip(4'-COOH)][4Pal]G[dDab][h3Pal(5-CN)])), the IC50 (in general, the midpoint of a concentration-inhibition curve) came to 0.0421 nM.
Turning to `CC(=O)NCCOc1ccc(C[C@@H]2NC(=O)[C@H](CCc3ccccc3C(F)(F)F)NC(=O)[C@@H](C)NC(=O)[C@H](CO)NC(=O)[C@H](Cc3ccncc3)NC(=O)[C@H](Cc3ccc(-c4ccc(C(=O)O)cc4)cc3)NC(=O)CNC(=O)[C@@H](C)N(C)C(=O)[C@H](CC(=O)O)NC(=O)[C@H]([C@@H](C)c3cccc4ccccc34)NC(=O)[C@@H]3C[C@@H](N)CN3C(=O)CNC(=O)[C@H](Cc3ccc(C(=O)O)cc3)NC(=O)[C@H](Cc3c[nH]c4ccccc34)NC2=O)cc1` [Example 103] (cyclo([AEF](Ac)W[Phe(4-COOH)]G[Pro(4R-NH2)][1Nal(3S-Me)]D[dNMeA]G[Bip(4'-COOH)][4Pal]S[dA][X13])), the IC50 came to 0.066 nM.
Regarding `CC(=O)NCCOc1ccc(C[C@@H]2NC(=O)[C@H](CCc3cccc(C(F)(F)F)c3)NC(=O)[C@@H](C)NC(=O)[C@H](CO)NC(=O)[C@H](Cc3ccncc3)NC(=O)[C@H](Cc3ccc(-c4ccc(C(=O)O)cc4)cc3)NC(=O)CNC(=O)[C@@H](C)N(C)C(=O)[C@H](CC(=O)O)NC(=O)[C@H]([C@@H](C)c3cccc4ccccc34)NC(=O)[C@@H]3C[C@@H](N)CN3C(=O)CNC(=O)[C@H](Cc3ccc(C(=O)O)cc3)NC(=O)[C@H](Cc3c[nH]c4ccccc34)NC2=O)cc1` [Example 104] (cyclo([AEF](Ac)W[Phe(4-COOH)]G[Pro(4R-NH2)][1Nal(3S-Me)]D[dNMeA]G[Bip(4'-COOH)][4Pal]S[dA][X8])), the IC50 was 0.041 nM.
In the case of `CC(=O)NCCOc1ccc(C[C@@H]2NC(=O)[C@H](CCc3ccc(C(F)(F)F)cc3)NC(=O)[C@@H](C)NC(=O)[C@H](CO)NC(=O)[C@H](Cc3ccncc3)NC(=O)[C@H](Cc3ccc(-c4ccc(C(=O)O)cc4)cc3)NC(=O)CNC(=O)[C@@H](C)N(C)C(=O)[C@H](CC(=O)O)NC(=O)[C@H]([C@@H](C)c3cccc4ccccc34)NC(=O)[C@@H]3C[C@@H](N)CN3C(=O)CNC(=O)[C@H](Cc3ccc(C(=O)O)cc3)NC(=O)[C@H](Cc3c[nH]c4ccccc34)NC2=O)cc1` [Example 105] (cyclo([AEF](Ac)W[Phe(4-COOH)]G[Pro(4R-NH2)][1Nal(3S-Me)]D[dNMeA]G[Bip(4'-COOH)][4Pal]S[dA][hPhe(4-CF3)])), the IC50 stood at 0.091 nM.
As to `CC(=O)NCCOc1ccc(C[C@@H]2NC(=O)[C@H](CCc3cncc(C#N)c3)NC(=O)[C@@H](CCN)NC(=O)CNC(=O)[C@H](CC3CCOCC3)NC(=O)[C@H](Cc3ccc(-c4ccc(C(=O)O)cc4)cc3)NC(=O)CNC(=O)[C@@H](C)N(C)C(=O)[C@H](CC(=O)O)NC(=O)[C@H]([C@@H](C)c3cccc4ccccc34)NC(=O)[C@@H]3C[C@@H](N)CN3C(=O)CNC(=O)[C@H](Cc3ccc(C(=O)O)cc3)NC(=O)[C@H](Cc3c[nH]c4ccccc34)NC2=O)cc1` [Example 106] (cyclo([AEF](Ac)W[Phe(4-COOH)]G[Pro(4R-NH2)][1Nal(3S-Me)]D[dNMeA]G[Bip(4'-COOH)][Ala(4-THP)]G[dDab][h3Pal(5-CN)])), the IC50 is 0.0263 nM.
As to `CC(=O)NCCOc1ccc(C[C@@H]2NC(=O)[C@H](CCc3ccc(O)cc3)NC(=O)C(C)(C)NC(=O)CNC(=O)[C@H](CCCCN)NC(=O)[C@H](Cc3ccc(-c4ccc(C(=O)O)cc4)cc3)NC(=O)CNC(=O)[C@@H](C)N(C)C(=O)[C@H](CC(=O)O)NC(=O)[C@H]([C@@H](C)c3cccc4ccccc34)NC(=O)[C@@H]3C[C@@H](N)CN3C(=O)CNC(=O)[C@H](Cc3ccc(C(=O)O)cc3)NC(=O)[C@H](Cc3c[nH]c4ccccc34)NC2=O)cc1` [Example 107] (cyclo([AEF](Ac)W[Phe(4-COOH)]G[Pro(4R-NH2)][1Nal(3S-Me)]D[dNMeA]G[Bip(4'-COOH)]KG[Aib][hTyr])), the IC50 amounted to 0.0582 nM.
Take `CC(=O)NCCOc1ccc(C[C@@H]2NC(=O)[C@H](CCc3ccc(O)cc3)NC(=O)[C@@H](C)NC(=O)CNC(=O)[C@H](CCCCN)NC(=O)[C@H](Cc3ccc(-c4ccc(C(=O)O)cc4)cc3)NC(=O)CNC(=O)[C@@H](C)N(C)C(=O)[C@H](CC(=O)O)NC(=O)[C@H]([C@@H](C)c3cccc4ccccc34)NC(=O)[C@@H]3C[C@@H](N)CN3C(=O)CNC(=O)[C@H](Cc3ccc(C(=O)O)cc3)NC(=O)[C@H](Cc3c[nH]c4ccccc34)NC2=O)cc1` [Example 108] (cyclo([AEF](Ac)W[Phe(4-COOH)]G[Pro(4R-NH2)][1Nal(3S-Me)]D[dNMeA]G[Bip(4'-COOH)]KG[dA][hTyr])): the IC50 stood at 0.102 nM.
The figure for `CC(=O)NCCOc1ccc(C[C@@H]2NC(=O)[C@H](CCc3ccc(O)cc3)NC(=O)[C@@H](C)N(C)C(=O)CNC(=O)[C@H](CCCCN)NC(=O)[C@H](Cc3ccc(-c4ccc(C(=O)O)cc4)cc3)NC(=O)CNC(=O)[C@@H](C)N(C)C(=O)[C@H](CC(=O)O)NC(=O)[C@H]([C@@H](C)c3cccc4ccccc34)NC(=O)[C@@H]3C[C@@H](N)CN3C(=O)CNC(=O)[C@H](Cc3ccc(C(=O)O)cc3)NC(=O)[C@H](Cc3c[nH]c4ccccc34)NC2=O)cc1` [Example 109] (cyclo([AEF](Ac)W[Phe(4-COOH)]G[Pro(4R-NH2)][1Nal(3S-Me)]D[dNMeA]G[Bip(4'-COOH)]KG[dNMeA][hTyr])) is 0.0775 nM.
In the case of `CC(=O)NCCOc1ccc(C[C@@H]2NC(=O)[C@H](CCc3ccc(O)cc3)NC(=O)[C@@H](C)NC(=O)[C@H](CC(C)C)NC(=O)[C@H](CCCCN)NC(=O)[C@H](Cc3ccc(-c4ccc(C(=O)O)cc4)cc3)NC(=O)CNC(=O)[C@@H](C)N(C)C(=O)[C@H](CC(=O)O)NC(=O)[C@H]([C@@H](C)c3cccc4ccccc34)NC(=O)[C@@H]3C[C@@H](N)CN3C(=O)CNC(=O)[C@H](Cc3ccc(C(=O)O)cc3)NC(=O)[C@H](Cc3c[nH]c4ccccc34)NC2=O)cc1` [Example 110] (cyclo([AEF](Ac)W[Phe(4-COOH)]G[Pro(4R-NH2)][1Nal(3S-Me)]D[dNMeA]G[Bip(4'-COOH)]KL[dA][hTyr])), the IC50 was determined as 0.195 nM.
The figure for `CC(=O)NCCOc1ccc(C[C@@H]2NC(=O)[C@H](CCc3ccc(C(F)(F)F)cc3)NC(=O)[C@@H](C)NC(=O)[C@H](CO)NC(=O)[C@H](CCCCN)NC(=O)[C@H](Cc3ccc(-c4ccc(C(=O)O)cc4)cc3)NC(=O)CNC(=O)[C@@H](C)N(C)C(=O)[C@H](CC(=O)O)NC(=O)[C@H]([C@@H](C)c3cccc4ccccc34)NC(=O)[C@@H]3C[C@@H](N)CN3C(=O)CNC(=O)[C@H](Cc3ccc(C(=O)O)cc3)NC(=O)[C@H](Cc3c[nH]c4ccccc34)NC2=O)cc1` [Example 111] (cyclo([AEF](Ac)W[Phe(4-COOH)]G[Pro(4R-NH2)][1Nal(3S-Me)]D[dNMeA]G[Bip(4'-COOH)]KS[dA][hPhe(4-CF3)])) is 0.133 nM.
Turning to `CC(=O)NCCOc1ccc(C[C@@H]2NC(=O)[C@H](CCc3ccc(O)cc3)NC(=O)[C@@H](C)NC(=O)[C@H](CO)NC(=O)[C@H](CCCCN)NC(=O)[C@H](Cc3ccc(-c4ccc(C(=O)O)cc4)cc3)NC(=O)CNC(=O)[C@@H](C)N(C)C(=O)[C@H](CC(=O)O)NC(=O)[C@H]([C@@H](C)c3cccc4ccccc34)NC(=O)[C@@H]3C[C@@H](N)CN3C(=O)CNC(=O)[C@H](Cc3ccc(C(=O)O)cc3)NC(=O)[C@H](Cc3c[nH]c4ccccc34)NC2=O)cc1` [Example 112] (cyclo([AEF](Ac)W[Phe(4-COOH)]G[Pro(4R-NH2)][1Nal(3S-Me)]D[dNMeA]G[Bip(4'-COOH)]KS[dA][hTyr])), the IC50 worked out at 0.0617 nM.
Take `CC(=O)NCCOc1ccc(C[C@@H]2NC(=O)[C@H](CCc3cncc(C#N)c3)NC(=O)[C@@H](CCN)NC(=O)CNC(=O)[C@H](Cc3cncnc3)NC(=O)[C@H](Cc3ccc(-c4ccc(C(=O)O)cc4)cc3)NC(=O)CNC(=O)[C@@H](C)N(C)C(=O)[C@H](CC(=O)O)NC(=O)[C@H]([C@@H](C)c3cccc4ccccc34)NC(=O)[C@@H]3C[C@@H](N)CN3C(=O)CNC(=O)[C@H](Cc3ccc(C(=O)O)cc3)NC(=O)[C@H](Cc3c[nH]c4ccccc34)NC2=O)cc1` [Example 113] (cyclo([AEF](Ac)W[Phe(4-COOH)]G[Pro(4R-NH2)][1Nal(3S-Me)]D[dNMeA]G[Bip(4'-COOH)][Ala(pyrimidin-5-yl)]G[dDab][h3Pal(5-CN)])): the concentration for half-maximal inhibition (IC50) worked out at 0.0918 nM.
For the compound `CC(=O)NCCOc1ccc(C[C@@H]2NC(=O)[C@H](CCc3cncc(C#N)c3)NC(=O)[C@@H](CCN)NC(=O)CNC(=O)[C@H](Cc3c[nH]c4ncccc34)NC(=O)[C@H](Cc3ccc(-c4ccc(C(=O)O)cc4)cc3)NC(=O)CNC(=O)[C@@H](C)N(C)C(=O)[C@H](CC(=O)O)NC(=O)[C@H]([C@@H](C)c3cccc4ccccc34)NC(=O)[C@@H]3C[C@@H](N)CN3C(=O)CNC(=O)[C@H](Cc3ccc(C(=O)O)cc3)NC(=O)[C@H](Cc3c[nH]c4ccccc34)NC2=O)cc1` [Example 114] (cyclo([AEF](Ac)W[Phe(4-COOH)]G[Pro(4R-NH2)][1Nal(3S-Me)]D[dNMeA]G[Bip(4'-COOH)][Trp(7-aza)]G[dDab][h3Pal(5-CN)])), the concentration for half-maximal inhibition (IC50) is 0.0233 nM.
For `CC(=O)NCCOc1ccc(C[C@@H]2NC(=O)[C@H](CCc3ccccc3)NC(=O)[C@@H](C)NC(=O)[C@H](CCN)NC(=O)[C@H](Cc3c[nH]c4ccccc34)NC(=O)[C@H](Cc3ccc(-c4ccc(C(=O)O)cc4)cc3)NC(=O)CNC(=O)[C@@H](C)N(C)C(=O)[C@H](CC(=O)O)NC(=O)[C@H]([C@@H](C)c3cccc4ccccc34)NC(=O)[C@@H]3C[C@@H](N)CN3C(=O)CNC(=O)[C@H](Cc3ccc(C(=O)O)cc3)NC(=O)[C@H](Cc3c[nH]c4ccccc34)NC2=O)cc1` [Example 115] (cyclo([AEF](Ac)W[Phe(4-COOH)]G[Pro(4R-NH2)][1Nal(3S-Me)]D[dNMeA]G[Bip(4'-COOH)]W[Dab][dA][hPhe])), the IC50 came out at 0.085 nM.

The values are drawn from patent US20230406885A1, “CYCLIC PEPTIDES FOR TRAPPING INTERLEUKIN-1 BETA” (MERCK SHARP & DOHME LLC, priority 2022, published 2023).
